For experiment [1], the target named is human Gal-1 (hGal-1) (Homo sapiens (Human), UniProt P09382). Nature of the experiment: competitive binding assay: biotinylated hGal-1 binding to microplate-adsorbed asialofetuin (ASF). The following applies: Table 15; read-out: IC50 (Galectin-1 inhibition). The essentials:
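Biotinylated human Gal-1 (300-1000 ng/mL) competes with serially diluted compound for binding to ASF-coated plates, 3 h at 4° C. Bound protein detected with streptavidin-peroxidase and ABTS substrate (spectrophotometric). IC50 given as mean of several measurements.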

The target in experiment [2] is human Gal-3 (hGal-3) (Homo sapiens (Human), UniProt P17931). The experiment in a line: competitive binding assay: biotinylated hGal-3 binding to microplate-adsorbed asialofetuin (ASF). The essentials:
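Compounds serially diluted in DMSO compete with asialofetuin for biotinylated human Gal-3; plates are incubated 3 h at 4 °C, washed, then treated 1 h at 4 °C with streptavidin-peroxidase (80 ng/mL) and developed with ABTS. IC50 values are means of several measurements.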

Setting [3] is: Table 5, read-out: IC50 (Gal-3 inhibition).
Setting [4] is: Table 11, read-out: IC50 (Gal-3 inhibition).
Setting [5] is: Gal-3 inhibition, binding of biotinylated hGal-3 to ASF, mean values, read-out: IC50.

Like-named read-outs stand apart in the source and are kept apart here.

These results are taken from patent US12404295B2, “(Hetero)aryl-methyl-thio-beta-D-galactopyranoside derivatives” (Idorsia Pharmaceuticals Ltd, priority 2019, dated 2025).

Chain of human Gal-3 (hGal-3) (P17931 whole entry): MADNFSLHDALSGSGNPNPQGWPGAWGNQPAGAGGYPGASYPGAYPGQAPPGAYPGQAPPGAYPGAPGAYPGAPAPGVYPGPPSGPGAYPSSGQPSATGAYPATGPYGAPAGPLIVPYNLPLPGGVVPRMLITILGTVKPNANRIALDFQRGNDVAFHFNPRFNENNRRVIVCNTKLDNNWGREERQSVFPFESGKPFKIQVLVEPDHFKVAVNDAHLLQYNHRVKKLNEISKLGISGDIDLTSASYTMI
Chain of human Gal-1 (hGal-1) (P09382 whole entry): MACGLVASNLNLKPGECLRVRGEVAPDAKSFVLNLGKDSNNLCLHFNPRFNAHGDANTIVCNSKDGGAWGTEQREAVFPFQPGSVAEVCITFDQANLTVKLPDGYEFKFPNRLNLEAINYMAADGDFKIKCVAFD

Regarding `OC[C@H]1O[C@@H](SC(c2ccccc2C(F)(F)F)C2(O)CC(F)(F)C2)[C@H](O)[C@@H](n2cc(-c3cc(F)c(F)c(F)c3)nn2)[C@H]1O` (stereo partly drawn) [Example 2.33.112., (2S,3R,4S,5R,6R)-2-(((3,3-Difluoro-1-hydroxycyclobutyl)(2-(trifluoromethyl)phenyl)methyl)thio)-6-(hydroxymethyl)-4-(4-(3,4,5-trifluorophenyl)-1H-1,2,3-triazol-1-yl)tetrahydro-2H-pyran-3,5-diol], the IC50 (usually the concentration needed to halve the response being measured) stood at 1800 nM in experiment [1] and 250 nM in experiment [2] (setting [3]).

On to `CCc1cccnc1[C@@H](S[C@@H]1O[C@H](CO)[C@H](O)[C@H](n2cc(-c3cc(F)c(F)c(F)c3)nn2)[C@H]1OC)C1(O)CCC(F)(F)CC1` [Example 2.44.142R.I., (2R,3R,4S,5R,6S)-6-(((R)-(4,4-Difluoro-1-hydroxycyclohexyl)(3-ethylpyridin-2-yl)methyl)thio)-2-(hydroxymethyl)-5-methoxy-4-(4-(3,4,5-trifluorophenyl)-1H-1,2,3-triazol-1-yl)tetrahydro-2H-pyran-3-ol [1,3-di-deoxy-1-((4,4-difluoro-1-hydroxy-cyclohexan-1-yl)-(3-(-ethyl)pyridin-2-yl)methyl-(R)-thio)-2-O-methyl-3-[4-(3,4,5-trifluorophenyl)-1H-1,2,3-triazol-1-yl]-b-D-galactopyranoside]], for which the IC50 in experiment [1] was 100 nM; in experiment [2] (setting [4]) it was 30 nM.

For `Cc1nccnc1C(S[C@@H]1O[C@H](CO)[C@H](O)[C@H](n2cc(-c3cc(F)c(F)c(F)c3)nn2)[C@H]1O)C1(O)CCC(F)(F)CC1` (stereo partly drawn) [Example 2.44.129., (2S,3R,4S,5R,6R)-2-(((4,4-Difluoro-1-hydroxycyclohexyl)(3-methylpyrazin-2-yl)methyl)thio)-6-(hydroxymethyl)-4-(4-(3,4,5-trifluorophenyl)-1H-1,2,3-triazol-1-yl)tetrahydro-2H-pyran-3,5-diol], the IC50 worked out at 350 nM in experiment [1] and 90 nM in experiment [2] (setting [5]).

For `Cc1cccnc1C(S[C@@H]1O[C@H](CO)[C@H](O)[C@H](n2cc(-c3cc(F)c(F)c(F)c3)nn2)[C@H]1O)C1(O)CCC(F)(F)CC1` (stereo partly drawn) [Example 2.44.126., (2S,3R,4S,5R,6R)-2-(((4,4-Difluoro-1-hydroxycyclohexyl)(3-methylpyridin-2-yl)methyl)thio)-6-(hydroxymethyl)-4-(4-(3,4,5-trifluorophenyl)-1H-1,2,3-triazol-1-yl)tetrahydro-2H-pyran-3,5-diol], the IC50 in experiment [1] and in experiment [2] (setting [5]) was 60 nM each time.

Turning to `OC[C@H]1O[C@@H](S[C@H](c2ncccc2C(F)(F)F)C2(O)CCCCC2)[C@H](O)[C@@H](n2cc(-c3cc(F)c(F)c(F)c3)nn2)[C@H]1O` [Example 2.39.125R., (2S,3R,4S,5R,6R)-2-(((R)-(1-Hydroxycyclohexyl)(3-(trifluoromethyl)pyridin-2-yl)methyl)thio)-6-(hydroxymethyl)-4-(4-(3,4,5-trifluorophenyl)-1H-1,2,3-triazol-1-yl)tetrahydro-2H-pyran-3,5-diol], the IC50 in experiment [1] turned out to be 280 nM; in experiment [2] (setting [3]) it was 100 nM.

Consider `CO[C@@H]1[C@@H](n2cc(-c3cc(F)c(F)c(F)c3)nn2)[C@@H](O)[C@@H](CO)O[C@H]1SC(c1nccc(Cl)c1Cl)C1(O)CCC(F)(F)CC1` (stereo partly drawn) [Example 2.44.143.I., (2R,3R,4S,5R,6S)-6-(((3,4-Dichloropyridin-2-yl)(4,4-difluoro-1-hydroxycyclohexyl)methyl)thio)-2-(hydroxymethyl)-5-methoxy-4-(4-(3,4,5-trifluorophenyl)-1H-1,2,3-triazol-1-yl)tetrahydro-2H-pyran-3-ol], for which the values for the IC50 in experiment [1] and in experiment [2] (setting [4]) were 850 nM and 140 nM, respectively.

With `Cc1noc(C)c1C(S[C@@H]1O[C@H](CO)[C@H](O)[C@H](n2cc(-c3cc(F)c(F)c(F)c3)nn2)[C@H]1O)C(C)(C)O` (stereo partly drawn) [Example 2.31.121., (2S,3R,4S,5R,6R)-2-((1-(3,5-Dimethylisoxazol-4-yl)-2-hydroxy-2-methylpropyl)thio)-6-(hydroxymethyl)-4-(4-(3,4,5-trifluorophenyl)-1H-1,2,3-triazol-1-yl)tetrahydro-2H-pyran-3,5-diol], the IC50 in experiment [1] was 5030 nM; in experiment [2] (setting [5]), 710 nM.

As for `Cc1nc(C)c([C@H](S[C@@H]2O[C@H](CO)[C@H](O)[C@H](n3cc(-c4cc(F)c(F)c(F)c4)nn3)[C@H]2O)C(C)(C)O)nc1C` [Example 2.31.119S., (2S,3R,4S,5R,6R)-2-(((S)-2-Hydroxy-2-methyl-1-(3,5,6-trimethylpyrazin-2-yl)propyl)thio)-6-(hydroxymethyl)-4-(4-(3,4,5-trifluorophenyl)-1H-1,2,3-triazol-1-yl)tetrahydro-2H-pyran-3,5-diol], the IC50 in experiment [1] was found to be 18400 nM; in experiment [2] (setting [5]), 2630 nM.

Consider `CC(C)(O)C(S[C@@H]1O[C@H](CO)[C@H](O)[C@H](n2cc(-c3cc(F)c(F)c(F)c3)nn2)[C@H]1O)c1ccccc1-c1ccccc1` (stereo partly drawn) [Example 2.31.110., (2S,3R,4S,5R,6R)-2-((1-([1,1′-Biphenyl]-2-yl)-2-hydroxy-2-methylpropyl)thio)-6-(hydroxymethyl)-4-(4-(3,4,5-trifluorophenyl)-1H-1,2,3-triazol-1-yl)tetrahydro-2H-pyran-3,5-diol], for which the half-maximal inhibitory concentration (IC50) in experiment [1] came to 400 nM; in experiment [2] (setting [5]), 180 nM.

In the case of `CO[C@@H]1[C@@H](n2cc(-c3cc(F)c(Cl)c(F)c3)nn2)[C@@H](O)[C@@H](CO)O[C@H]1SC(c1ncccc1C)C1(O)CCC(F)(F)CC1` (stereo partly drawn) [Example 11.44.126.I., (2R,3R,4S,5R,6S)-4-(4-(4-Chloro-3,5-difluorophenyl)-1H-1,2,3-triazol-1-yl)-6-(((4,4-difluoro-1-hydroxycyclohexyl)(3-methylpyridin-2-yl)methyl)thio)-2-(hydroxymethyl)-5-methoxytetrahydro-2H-pyran-3-ol], the 50% inhibitory concentration (IC50) in experiment [1] was determined as 2430 nM; in experiment [2] (Table 14, read-out: IC50 (Gal-3 inhibition)) it was 90 nM.

As for `CCc1c([C@@H](S[C@@H]2O[C@H](CO)[C@H](O)[C@H](n3cc(-c4cc(F)c(F)c(F)c4)nn3)[C@H]2O)C2(O)CCC(F)(F)CC2)noc1C1CC1` [Example 2.44.130R., (2S,3R,4S,5R,6R)-2-(((R)-(5-Cyclopropyl-4-ethylisoxazol-3-yl)(4,4-difluoro-1-hydroxycyclohexyl)methyl)thio)-6-(hydroxymethyl)-4-(4-(3,4,5-trifluorophenyl)-1H-1,2,3-triazol-1-yl)tetrahydro-2H-pyran-3,5-diol], the IC50 in experiment [1] worked out at 160 nM; in experiment [2] (setting [5]), 20 nM.

Take `Cc1nc(C)c([C@@H](S[C@@H]2O[C@H](CO)[C@H](O)[C@H](n3cc(-c4cc(F)c(F)c(F)c4)nn3)[C@H]2O)C2(O)CCN(C)CC2)nc1C` [Example 2.40.119R., (2S,3R,4S,5R,6R)-2-(((R)-(4-Hydroxy-1-methylpiperidin-4-yl)(3,5,6-trimethylpyrazin-2-yl)methyl)thio)-6-(hydroxymethyl)-4-(4-(3,4,5-trifluorophenyl)-1H-1,2,3-triazol-1-yl)tetrahydro-2H-pyran-3,5-diol]: the IC50 in experiment [1] came to 110 nM; in experiment [2] (setting [5]), 50 nM.

`Cc1cscc1C(S[C@@H]1O[C@H](CO)[C@H](O)[C@H](n2cc(-c3cc(F)c(F)c(F)c3)nn2)[C@H]1O)C(C)(C)O` (stereo partly drawn) [Example 2.31.124., (2S,3R,4S,5R,6R)-2-((2-Hydroxy-2-methyl-1-(4-methylthiophen-3-yl)propyl)thio)-6-(hydroxymethyl)-4-(4-(3,4,5-trifluorophenyl)-1H-1,2,3-triazol-1-yl)tetrahydro-2H-pyran-3,5-diol]: the values for the IC50 in experiment [1] and in experiment [2] (setting [5]) were 5150 nM and 500 nM, respectively.

Turning to `COCC(S[C@@H]1O[C@H](CO)[C@H](O)[C@H](n2cc(-c3cc(F)c(F)c(F)c3)nn2)[C@H]1O)c1ccccc1` (stereo partly drawn) [Example 2.30.100.OMe, (2R,3R,4S,5R,6S)-2-(Hydroxymethyl)-6-((2-methoxy-1-phenylethyl)thio)-4-(4-(3,4,5-trifluorophenyl)-1H-1,2,3-triazol-1-yl)tetrahydro-2H-pyran-3,5-diol, reference compound], the IC50 worked out at 56300 nM in experiment [1] and 2900 nM in experiment [2] (setting [5]).

As to `Cc1conc1C(S[C@@H]1O[C@H](CO)[C@H](O)[C@H](n2cc(-c3cc(F)c(F)c(F)c3)nn2)[C@H]1O)C(C)(C)O` (stereo partly drawn) [Example 2.31.120., (2S,3R,4S,5R,6R)-2-((2-Hydroxy-2-methyl-1-(4-methylisoxazol-3-yl)propyl)thio)-6-(hydroxymethyl)-4-(4-(3,4,5-trifluorophenyl)-1H-1,2,3-triazol-1-yl)tetrahydro-2H-pyran-3,5-diol], the IC50 in experiment [1] came out at 3000 nM; in experiment [2] (setting [5]), 730 nM.

`Cc1conc1[C@@H](S[C@@H]1O[C@H](CO)[C@H](O)[C@H](n2cc(-c3cc(F)c(F)c(F)c3)nn2)[C@H]1O)C1(O)CCC(F)(F)CC1` [Example 2.44.120R., (2S,3R,4S,5R,6R)-2-(((R)-(4,4-Difluoro-1-hydroxycyclohexyl)(4-methylisoxazol-3-yl)methyl)thio)-6-(hydroxymethyl)-4-(4-(3,4,5-trifluorophenyl)-1H-1,2,3-triazol-1-yl)tetrahydro-2H-pyran-3,5-diol]: the figures for the IC50 in experiment [1] and in experiment [2] (setting [3]) were 380 nM and 110 nM, respectively.

On to `CC(C)c1cccnc1[C@H](S[C@@H]1O[C@H](CO)[C@H](O)[C@H](n2cc(-c3cc(F)c(F)c(F)c3)nn2)[C@H]1O)C1(O)CCC(F)(F)CC1` [Example 2.44.132S., (2S,3R,4S,5R,6R)-2-(((S)-(4,4-Difluoro-1-hydroxycyclohexyl)(3-isopropylpyridin-2-yl)methyl)thio)-6-(hydroxymethyl)-4-(4-(3,4,5-trifluorophenyl)-1H-1,2,3-triazol-1-yl)tetrahydro-2H-pyran-3,5-diol], for which the IC50 in experiment [1] was found to be 4700 nM; in experiment [2] (setting [5]), 2270 nM.
